Source: patent publication US12655116B2, “Substituted isophthalic acid diamides” (Bayer Aktiengesellschaft, priority 2020, dated 2026)

Legend:
ABUTH [1] = assay: Pre-emergence herbicidal action against ABUTH; type: in vivo, Abutilon theophrasti
Method in brief: (§1)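 Seeds sown in sandy loam, soil-covered; compound sprayed on soil surface pre-emergence. Application: WP/EC, 600–800 l/ha, 0.2% wetting agent. Readout: visual % damage at 3 weeks.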

ALOMY [2] = assay: Pre-emergence herbicidal action against ALOMY; type: in vivo, Alopecurus myosuroides; conditions: pre-emergence
Method in brief: as §1

AMARE [3] = assay: Pre-emergence herbicidal action against AMARE; type: in vivo, Amaranthus retroflexus
Method in brief: as §1

AVEFA = assay: Pre-emergence herbicidal action against AVEFA; type: in vivo, Avena fatua
Method in brief: as §1

ECHCG [4] = assay: Pre-emergence herbicidal action against ECHCG; type: in vivo, Echinochloa crus-galli
Method in brief: as §1

LOLRI = assay: Pre-emergence herbicidal action against LOLRI; type: in vivo, Lolium rigidum; conditions: 80 g/ha
Method in brief: as §1

MATIN [5] = assay: Pre-emergence herbicidal action against MATIN; type: in vivo, Matricaria inodora
Method in brief: as §1

PHBPU [6] = assay: Pre-emergence herbicidal action against PHBPU; type: in vivo, Pharbitis purpurea
Method in brief: as §1

SETVI [7] = assay: Pre-emergence herbicidal action against SETVI; type: in vivo, Setaria viridis
Method in brief: as §1

VIOTR [8] = assay: Pre-emergence herbicidal action against VIOTR; type: in vivo, Viola tricolor
Method in brief: as §1

DIGSA [9] = assay: Pre-emergence herbicidal action against DIGSA; type: in vivo, Digitaria sanguinalis
Method in brief: as §1

ALOMY [10] = assay: Post-emergence herbicidal action against ALOMY; type: in vivo, Alopecurus myosuroides; conditions: visual assessment about 3 weeks after treatment vs untreated controls
Method in brief: (§2)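 Sandy loam, greenhouse; treatment 2–3 weeks after sowing, one-leaf stage. Aqueous suspension or emulsion from WP/EC sprayed on foliage (600–800 l/ha, 0.2% wetting agent). Readout: visual % action, ~3 weeks.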

AMARE [11] = assay: Post-emergence herbicidal action against AMARE; type: in vivo, Amaranthus retroflexus; conditions: 20 g/ha, visual assessment about 3 weeks after treatment, 100% = plants have died, 0% = like control plants
Method in brief: as §2

ECHCG [12] = assay: Post-emergence herbicidal action against ECHCG; type: in vivo, Echinochloa crus-galli; conditions: dosage 20 g/ha
Method in brief: as §2

MATIN [13] = assay: Post-emergence herbicidal action against MATIN; type: in vivo, Matricaria inodora
Method in brief: as §2

PHBPU [14] = assay: Post-emergence herbicidal action against PHBPU; type: in vivo, Pharbitis purpurea; conditions: dosage 20 g/ha
Method in brief: as §2

VERPE [15] = assay: Post-emergence herbicidal action against VERPE; type: in vivo, Veronica persica; conditions: 20 g/ha
Method in brief: as §2

VIOTR [16] = assay: Post-emergence herbicidal action against VIOTR; type: in vivo, Viola tricolor
Method in brief: as §2

DIGSA [17] = assay: Post-emergence herbicidal action against DIGSA; type: in vivo, Digitaria sanguinalis; conditions: 20 g/ha
Method in brief: as §2

VERPE [18] = assay: Pre-emergence herbicidal action against VERPE; type: in vivo, Veronica persica; conditions: Veronica persica, 504 h, dosage 80 g/ha
Method in brief: as §1

ABUTH [19] = assay: Post-emergence herbicidal action against ABUTH; type: in vivo, Abutilon theophrasti; conditions: Abutilon theophrasti, 504 h, visual assessment about 3 weeks after treatment vs untreated controls
Method in brief: as §2

SETVI [20] = assay: Post-emergence herbicidal action against SETVI; type: in vivo, Setaria viridis; conditions: Setaria viridis, 504 h
Method in brief: as §2

[21] = 80 g/ha, scored visually after 3 weeks vs untreated controls (100% = plants have died, 0% = like control plants)
[22] = Tripleurospermum inodorum, 504 h, dosage 20 g/ha

In the case of CCn1nnnc1NC(=O)c1ccc(C(F)(F)F)c(C(=O)NCC(F)F)c1Cl [Example 2-134], the “Pre-emergence action against ABUTH (herbicidal activity)” value (ABUTH [1]; [21]) is reported as 100%, the “Pre-emergence action against ABUTH (herbicidal activity in percent)” value (ABUTH [1]; dosage 20 g/ha, scored visually after 3 weeks vs untreated controls, 100% = plants have died, 0% = like control plants) is reported as 100% and the “Pre-emergence action against ALOMY (herbicidal activity)” value (ALOMY [2]; [21]) is reported as 90%. For the same molecule, the “Pre-emergence action against AMARE in %” value (AMARE [3]; 20 g/ha, scored visually after 3 weeks vs untreated controls, 100% = plants have died, 0% = like control plants) was 100%, the “Pre-emergence action against AMARE in %” value (AMARE [3]; [21]) was 100% and the “Pre-emergence action against AVEFA” value (AVEFA; 20 g/ha, scored visually after 3 weeks, 100% = plants have died, 0% = like control plants) was 80%. For the same molecule, the “Pre-emergence action against AVEFA in %” value (AVEFA; 80 g/ha, pre-emergence) was 90%, the “Pre-emergence action against ECHCG in %” value (ECHCG [4]; 20 g/ha) was 80% and the “Pre-emergence action against ECHCG in %” value (ECHCG [4]; 80 g/ha) was 100%. For the same molecule, the “Pre-emergence action against LOLRI in %” value (LOLRI) was 80%, the “Pre-emergence action against MATIN in %” value (MATIN [5]; dosage 20 g/ha) was 90% and the “Pre-emergence action against MATIN in %” value (MATIN [5]; dosage 80 g/ha) was 100%. For the same molecule, the “Pre-emergence action against PHBPU in %” value (PHBPU [6]; dosage 20 g/ha) was 80%, the “Pre-emergence action against PHBPU in %” value (PHBPU [6]; dosage 80 g/ha) was 90% and the “Pre-emergence action against SETVI in %” value (SETVI [7]; dosage 20 g/ha) was 80%. The “Pre-emergence action against SETVI in %” value (SETVI [7]; dosage 80 g/ha) was 100%, the “Pre-emergence action against VIOTR in %” value (VIOTR [8]; dosage 20 g/ha) was 100% and the “Pre-emergence action against VIOTR in %” value (VIOTR [8]; dosage 80 g/ha) was 100%. The “Pre-emergence action against DIGSA in %” value (DIGSA [9]; dosage 20 g/ha) was 80%, the “Pre-emergence action against DIGSA in %” value (DIGSA [9]; dosage 80 g/ha) was 100% and the “Post-emergence action against ALOMY in %” value (ALOMY [10]; dosage 20 g/ha) was 80%. The “Post-emergence action at 20 g/ha against AMARE in %” value (AMARE [11]) was 100%, the “Post-emergence action against ECHCG in %” value (ECHCG [12]) was 90% and the “Post-emergence action against MATIN in %” value (MATIN [13]; dosage 20 g/ha) was 80%. The “Post-emergence action against PHBPU in %” value (PHBPU [14]) was 90%, the “Post-emergence action against VERPE in %” value (VERPE [15]) was 80% and the “Post-emergence action against VIOTR in %” value (VIOTR [16]; 5 g/ha) was 80%. The “Post-emergence action against VIOTR in %” value (VIOTR [16]; 20 g/ha) was 90% and the “Post-emergence action against DIGSA” value (DIGSA [17]) was 80%.

In the case of CCn1nnnc1NC(=O)c1ccc(Br)c(C(=O)NC)c1Cl [Example 2-177], the pest or weed control at 80 g/ha (ABUTH [1]; Abutilon theophrasti, 504 h, 80 g/ha, scored visually after 3 weeks vs untreated controls (100% = plants have died, 0% = like control plants)) is reported as 100%, the pest or weed control at 20 g/ha (ABUTH [1]; Abutilon theophrasti, 504 h, dosage 20 g/ha, scored visually after 3 weeks vs untreated controls, 100% = plants have died, 0% = like control plants, read-out: Pre-emergence action against ABUTH (herbicidal activity in percent)) is reported as 90% and the pest or weed control at 80 g/ha (ALOMY [2]; Alopecurus myosuroides, 504 h, 80 g/ha, scored visually after 3 weeks vs untreated controls (100% = plants have died, 0% = like control plants)) is reported as 100%. The pest or weed control at 20 g/ha (ALOMY [2]; Alopecurus myosuroides, 504 h, 20 g/ha, scored visually after 3 weeks, 100% = plants have died, 0% = like control plants) was 90%, the pest or weed control at 20 g/ha (AMARE [3]; Amaranthus retroflexus, 504 h, 20 g/ha, scored visually after 3 weeks vs untreated controls, 100% = plants have died, 0% = like control plants) was 100% and the pest or weed control at 80 g/ha (AMARE [3]; Amaranthus retroflexus, 504 h, 80 g/ha, scored visually after 3 weeks vs untreated controls, 100% = plants have died, 0% = like control plants) was 100%. For the same molecule, the pest or weed control at 80 g/ha (AVEFA; Avena fatua, 504 h, 80 g/ha, pre-emergence) was 90%, the pest or weed control at 80 g/ha (ECHCG [4]; Echinochloa crus-galli, 504 h, 80 g/ha) was 90% and the pest or weed control at 80 g/ha (LOLRI; Lolium rigidum, 504 h) was 90%. For the same molecule, the pest or weed control at 20 g/ha (MATIN [5]; [22]) was 90%, the pest or weed control at 80 g/ha (MATIN [5]; Tripleurospermum inodorum, 504 h, dosage 80 g/ha) was 100% and the pest or weed control at 80 g/ha (PHBPU [6]; Ipomoea purpurea, 504 h, dosage 80 g/ha) was 80%. For the same molecule, the pest or weed control at 20 g/ha (SETVI [7]; Setaria viridis, 504 h, dosage 20 g/ha) was 100%, the pest or weed control at 80 g/ha (SETVI [7]; Setaria viridis, 504 h, dosage 80 g/ha) was 100% and the pest or weed control at 80 g/ha (VERPE [18]) was 80%. It also gave a pest or weed control at 20 g/ha (VIOTR [8]; Viola tricolor, 504 h, dosage 20 g/ha) of 100%, a pest or weed control at 80 g/ha (VIOTR [8]; Viola tricolor, 504 h, dosage 80 g/ha) of 100% and a pest or weed control at 20 g/ha (DIGSA [9]; Digitaria sanguinalis, 504 h, dosage 20 g/ha) of 100%. For the same molecule, the pest or weed control at 80 g/ha (DIGSA [9]; Digitaria sanguinalis, 504 h, dosage 80 g/ha) was 100%, the pest or weed control at 5 g/ha (ABUTH [19]; dosage 5 g/ha) was 80% and the pest or weed control at 20 g/ha (ABUTH [19]; dosage 20 g/ha) was 90%. The pest or weed control at 5 g/ha (ALOMY [10]; Alopecurus myosuroides, 504 h, dosage 5 g/ha) was 80%, the pest or weed control at 20 g/ha (ALOMY [10]; Alopecurus myosuroides, 504 h, dosage 20 g/ha) was 100% and the pest or weed control at 20 g/ha (AMARE [11]; Amaranthus retroflexus, 504 h) was 100%. It also gave a pest or weed control at 5 g/ha (MATIN [13]; Tripleurospermum inodorum, 504 h, dosage 5 g/ha) of 90%, a pest or weed control at 20 g/ha (MATIN [13]; [22]) of 90% and a pest or weed control at 5 g/ha (SETVI [20]; dosage 5 g/ha) of 90%. For the same molecule, the pest or weed control at 20 g/ha (SETVI [20]; dosage 20 g/ha) was 90%, the pest or weed control at 20 g/ha (VERPE [15]; Veronica persica, 504 h) was 80% and the pest or weed control at 5 g/ha (VIOTR [16]; Viola tricolor, 504 h, 5 g/ha) was 80%. It also gave a pest or weed control at 20 g/ha (VIOTR [16]; Viola tricolor, 504 h, 20 g/ha) of 100%.
